Results published in patent US7326540B2, “Methods for identifying compounds that modulate stabilization of secretase-associated proteins” (priority 2003, dated 2008).
Where a SMILES comes first, the peptide text is derived from it. The star is where a group is joined. Cbz = O=C(OCc1ccccc1)*; CH2F = FC*

Columns and labels:
Format in all cases: cell-based, Chinese Hamster
[1] = test system: Aβ production in CHO cells overexpressing APP751 and PS1 WT; test: Secreted Aβ ELISA in CHO cells overexpressing APP751 and PS1 during induced apoptosis
Procedure: We examined Aβ generation induced by apoptosis in CHO cell lines. We used CHO cell lines stably overexpressing both APP751 and PS1 WT. For the induction of apoptosis, we used 1 μM staurosporine (STS) in serum free media. Secreted Aβ was measured in the conditioned media of cells treated with STS for 6 hrs using a sensitive ELISA assay [courtesy of Dr. Dennis Selkoe; M. S. Wolfe et al., Nature 398, 513-7 (1999)].
Treatment with either STS for 6 hrs or etoposide for 12 hrs induced from 10 to 20% of cell death assayed by MTT assay, which is a colorimetric short-term suspension culture assay in which the yellow tetrazolium salt (MTT) is reduced in metabolically active cells to form insoluble purple formazan crystals, which are solubilized by the addition of a detergent.
Chinese Hamster Ovary (CHO) cells expressing APP751 and BACE (CAB), CHO cells expressing full-length APP and wild-type PS1 (CHO-APP751/PS1) or expressing C99 and wild-type PS1 (CHO-CC99/PS1), H4 human neuroglioma cells expressing APP751 (H4-APP751), mouse embryonic fibroblast (MEF), embryonic stem (ES) cells, and human epithelial A431 cells were grown as described previously (Marambaud, P. et al., Embo J 21, 1948-56 (2002); Cai, H. et al., Nat Neurosci 4, 233-4 (2001); Sato, N. et al., Nat Cell Biol 2, 863-70 (2000); Puglielli, L., Ellis, B. C., Saunders, A. J. & Kovacs, D. M., J Biol Chem 278, 19777-83 (2003); Wolfe, M. S. et al., Nature 398, 513-7 (1999)). For the induction of apoptosis, we used staurosporine or etoposide (Calbiochem (EMD Biosciences, San Diego, Calif.)). For Aβ measurements, cells were seeded at the density of 0.5×10^6 cells per well in 6 well plates. After 48 hours, cells were treated with either STS (1 μM) for 6 hours. […] For time-course experiments, cells were seeded at the density of 2×10^6 cells per 100 mm dish and treated with STS (1 μM) or etoposide (100 μg/mL). At different time points (0, 3, 6, 9, 12 and 24 hours), the cells were scraped, centrifuged and then lysed in buffer containing 1% NP40. Western blot analysis was performed as previously described (Tesco, G., Koh, Y. H. & Tanzi, R. E., J Biol Chem 278, 46074-80 (2003)). Densitometry analysis was performed on a Macintosh computer using the public domain NIH Image program (developed at the U.S. National Institutes of Health and available on the Internet at http://rsb.info.nih.gov/nih-image/).
Secreted Aβ1-total was measured in the conditioned media of untreated cells or of cells treated with STS or STS plus zVAD using a sensitive ELISA (Wolfe, M. S. et al., Nature 398, 513-7 (1999). At least three different experiments were carried out and each experiment was performed at least in triplicate.

[2] = test system: BACE; test: BACE protein levels by Western blot in CHO cells overexpressing APP751 and PS1WT
Excerpt: We examined whether the apoptosis-mediated increase in Aβ generation was associated with changes in the levels and activities of BACE and β-secretase. […] In addition, upregulation of BACE occured also in H4 human neuroglioma (FIG. 3B) and in BACE+/+ mouse fibroblasts (FIG. 3C). BACE−/− mouse fibroblasts were used to show the specificity of the antibody used to detect BACE (FIG. 3C).
Chinese Hamster Ovary (CHO) cells expressing APP751 and BACE (CAB), CHO cells expressing full-length APP and wild-type PS1 (CHO-APP751/PS1) or expressing C99 and wild-type PS1 (CHO-CC99/PS1), H4 human neuroglioma cells expressing APP751 (H4-APP751), mouse embryonic fibroblast (MEF), embryonic stem (ES) cells, and human epithelial A431 cells were grown as described previously (Marambaud, P. et al., Embo J 21, 1948-56 (2002); Cai, H. et al., Nat Neurosci 4, 233-4 (2001); Sato, N. et al., Nat Cell Biol 2, 863-70 (2000); Puglielli, L., Ellis, B. C., Saunders, A. J. & Kovacs, D. M., J Biol Chem 278, 19777-83 (2003); Wolfe, M. S. et al., Nature 398, 513-7 (1999)). For the induction of apoptosis, we used staurosporine or etoposide (Calbiochem (EMD Biosciences, San Diego, Calif.)). For Aβ measurements, cells were seeded at the density of 0.5×10^6 cells per well in 6 well plates. After 48 hours, cells were treated with either STS (1 μM) for 6 hours. […]

[3] = test system: BACE; test: BACE protein levels by Western blot and densitometry in CAB cells
Procedure: Chinese Hamster Ovary (CHO) cells expressing APP751 and BACE (CAB), CHO cells expressing full-length APP and wild-type PS1 (CHO-APP751/PS1) or expressing C99 and wild-type PS1 (CHO-CC99/PS1), H4 human neuroglioma cells expressing APP751 (H4-APP751), mouse embryonic fibroblast (MEF), embryonic stem (ES) cells, and human epithelial A431 cells were grown as described previously (Marambaud, P. et al., Embo J 21, 1948-56 (2002); Cai, H. et al., Nat Neurosci 4, 233-4 (2001); Sato, N. et al., Nat Cell Biol 2, 863-70 (2000); Puglielli, L., Ellis, B. C., Saunders, A. J. & Kovacs, D. M., J Biol Chem 278, 19777-83 (2003); Wolfe, M. S. et al., Nature 398, 513-7 (1999)). For the induction of apoptosis, we used staurosporine or etoposide (Calbiochem (EMD Biosciences, San Diego, Calif.)). For Aβ measurements, cells were seeded at the density of 0.5×10^6 cells per well in 6 well plates. After 48 hours, cells were treated with either STS (1 μM) for 6 hours. In order to inhibit caspase activation a sister plate of cells was pre-treated with zVAD ([…], Enzyme Systems Products) for 1 hour before STS treatment. For time-course experiments, cells were seeded at the density of 2×10^6 cells per 100 mm dish and treated with STS (1 μM) or etoposide (100 μg/mL). At different time points (0, 3, 6, 9, 12 and 24 hours), the cells were scraped, centrifuged and then lysed in buffer containing 1% NP40. Western blot analysis was performed as previously described (Tesco, G., Koh, Y. H. & Tanzi, R. E., J Biol Chem 278, 46074-80 (2003)). Densitometry analysis was performed on a Macintosh computer using the public domain NIH Image program (developed at the U.S. National Institutes of Health and available on the Internet at http://rsb.info.nih.gov/nih-image/).
It has been previously shown that overexpression of BACE enhances β-secretase cleavage of APP leading to the accumulation of intracellular C99 (Vassar, R. et al., Science 286, 735-41 (1999)). We first asked whether apoptosis/caspase activation leads to accumulation of C99 owing to increased β-secretase activity.

[4] = etoposide 100 μg/mL + 200 μM zVAD, 12 hrs, compared to etoposide treated cells
[5] = zVAD 200 μM pretreated 1 hr before STS, compared to STS-treated cells, p<0.05
[6] = 1 μM STS in serum free media, 6 hrs, p<0.05 t-test

Compound | Secreted Aβ42 [1, 4] | Secreted Aβtotal [1, 4] | Secreted Aβ1-42 [1, 5] | Secreted Aβtotal [1, 5] | BACE upregulation during STS-induced apoptosis ([2]; zVAD 100 μM, all cell types (CHO, H4 human neuroglioma, BACE+/+ mouse fibroblasts)) | BACE accumulation during STS-induced apoptosis ([3]; zVAD, both CAB and H4-APP751 cells) | Secreted Aβ1-42 [1, 6] | Secreted Aβtotal [1, 6] | Aβ1-total increase ([1]; STS-treated CHO-APP751/PS1 cells, 6 hours) [fold] | BACE protein levels ([2]; after 24 hrs of STS treatment) | BACE protein levels increase ([3]; after 6 hours or 24 hours of STS treatment, CAB cells) [fold]
COC(=O)C[C@H](NC(=O)[C@H](C)NC(=O)[C@@H](NC(=O)OCc1ccccc1)C(C)C)C(=O)CF [zVAD] (Cbz-Val-Ala-Asp(OMe)-CH2F) | significantly attenuate | significantly attenuate | significantly reduced | significantly reduced | prevented BACE upregulation | prevented BACE accumulation | – | – | – | – | –
CN[C@@H]1C[C@H]2O[C@@](C)([C@@H]1OC)n1c3ccccc3c3c4c(c5c6ccccc6n2c5c31)C(=O)NC4 [STS, staurosporine] | – | – | – | – | – | – | significantly increased | significantly increased | ~2.5 | significant increase | ~4
